From ChEMBL document CHEMBL1146302, “Highly constrained bicyclic VLA-4 antagonists” (Bioorg Med Chem Lett, 2007) come the findings set out here.

In general, IC50 refers to the concentration that inhibits the measured activity by half. As a reminder, the half-life is the time needed for the level to fall by half in the phase considered. High values mean slow decline, low ones rapid decline. Usually clearance stands for the rate of elimination divided by the concentration. Read a low clearance as a low capacity for elimination. The term bioavailability denotes the share of a dose that reaches the circulation, judged against a reference dose that is usually intravenous.

For data set [1], the target named is T1, Integrin alpha-4/beta-1 (Homo sapiens, UniProt P05556+P13612). Description: Binding affinity to human VLA4 alpha4beta1 in Jurkat cells. Format: cell-based.
Data set [2] concerns the target T1, Integrin alpha-4/beta-1. Kind of data set: Displacement of [125I]VCAM-Ig from human VLA4 alpha-4-beta-1 in Jurkat cells at 100 uM. The data set is classed as cell-based.
Data set [3] in a line: Half life in Sprague-Dawley rat plasma at 2 mg/kg, po by cassette-dosing assay. The data set is classed as ADME, organism-based. Further details: dose 2 mg/kg, route oral.
Data set [4] is described as follows: Half life in Sprague-Dawley rat plasma at 1 mg/kg, iv by cassette-dosing assay. Further details: dose 1 mg/kg, route intravenous. The data set is classed as ADME, organism-based.
The nature of data set [5]: Clearance in Sprague-Dawley rat plasma at 1 mg/kg, iv by cassette-dosing assay. The data set is classed as ADME, organism-based. Further details: dose 1 mg/kg, route intravenous.
For the next data set, the target named is T2, Integrin alpha-4/beta-7 (Homo sapiens, UniProt P13612+P26010).
T2 sequence (P13612 whole entry): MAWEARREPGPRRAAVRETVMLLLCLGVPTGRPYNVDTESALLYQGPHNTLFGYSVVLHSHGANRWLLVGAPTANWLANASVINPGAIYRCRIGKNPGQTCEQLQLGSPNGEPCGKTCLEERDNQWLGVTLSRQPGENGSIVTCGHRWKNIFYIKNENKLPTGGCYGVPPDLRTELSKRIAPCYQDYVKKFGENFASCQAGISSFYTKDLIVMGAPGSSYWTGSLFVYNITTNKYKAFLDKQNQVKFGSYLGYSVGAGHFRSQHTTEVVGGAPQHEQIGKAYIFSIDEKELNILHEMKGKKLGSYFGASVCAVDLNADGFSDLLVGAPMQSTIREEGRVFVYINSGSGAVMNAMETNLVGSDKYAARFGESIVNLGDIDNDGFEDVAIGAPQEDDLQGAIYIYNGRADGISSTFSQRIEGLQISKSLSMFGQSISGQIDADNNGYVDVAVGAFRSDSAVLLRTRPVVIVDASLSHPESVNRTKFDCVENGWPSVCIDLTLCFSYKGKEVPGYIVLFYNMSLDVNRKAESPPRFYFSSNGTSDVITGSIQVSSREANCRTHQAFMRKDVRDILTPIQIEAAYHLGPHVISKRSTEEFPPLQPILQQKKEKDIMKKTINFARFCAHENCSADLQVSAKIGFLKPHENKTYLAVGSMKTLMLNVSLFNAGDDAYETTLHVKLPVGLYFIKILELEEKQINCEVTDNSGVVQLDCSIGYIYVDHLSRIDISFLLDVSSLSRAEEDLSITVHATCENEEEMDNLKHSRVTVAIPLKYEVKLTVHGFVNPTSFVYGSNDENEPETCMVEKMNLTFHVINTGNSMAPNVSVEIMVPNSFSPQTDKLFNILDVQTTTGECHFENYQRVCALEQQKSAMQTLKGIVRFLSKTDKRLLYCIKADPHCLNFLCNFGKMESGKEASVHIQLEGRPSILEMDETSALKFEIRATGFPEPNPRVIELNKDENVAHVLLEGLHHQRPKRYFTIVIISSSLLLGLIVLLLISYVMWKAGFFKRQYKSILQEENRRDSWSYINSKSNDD
T2 sequence (P26010 whole entry): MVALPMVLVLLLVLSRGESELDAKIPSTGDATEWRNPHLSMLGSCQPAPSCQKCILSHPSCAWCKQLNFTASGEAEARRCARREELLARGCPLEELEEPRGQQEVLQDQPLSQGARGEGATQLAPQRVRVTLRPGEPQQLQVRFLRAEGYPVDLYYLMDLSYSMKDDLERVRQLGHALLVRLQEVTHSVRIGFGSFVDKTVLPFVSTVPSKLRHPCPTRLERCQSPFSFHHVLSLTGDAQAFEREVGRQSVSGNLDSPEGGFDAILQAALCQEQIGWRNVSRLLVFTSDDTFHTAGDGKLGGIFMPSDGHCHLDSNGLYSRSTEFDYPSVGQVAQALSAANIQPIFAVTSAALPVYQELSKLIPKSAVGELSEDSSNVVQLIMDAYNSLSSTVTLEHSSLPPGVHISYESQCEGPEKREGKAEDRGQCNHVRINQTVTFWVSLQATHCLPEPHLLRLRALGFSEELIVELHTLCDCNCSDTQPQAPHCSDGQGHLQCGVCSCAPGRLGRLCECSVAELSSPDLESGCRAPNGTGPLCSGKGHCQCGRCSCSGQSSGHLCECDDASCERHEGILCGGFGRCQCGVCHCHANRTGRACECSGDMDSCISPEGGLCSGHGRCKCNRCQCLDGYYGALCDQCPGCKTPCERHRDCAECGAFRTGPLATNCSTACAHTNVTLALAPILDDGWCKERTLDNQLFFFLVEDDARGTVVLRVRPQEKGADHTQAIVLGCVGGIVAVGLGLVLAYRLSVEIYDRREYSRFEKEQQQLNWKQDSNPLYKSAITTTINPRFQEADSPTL
Description: Binding affinity to human integrin alpha-4-beta-7 in Jurkat cells. Format: cell-based.

Data set [6] in a line: Bioavailability in Sprague-Dawley rat at 2 mg/kg, po by cassette-dosing assay. Format: ADME, organism-based. The settings on record: in vivo.

The structures appear in SMILES notation. Active and inactive are the calls of the source.

T1 sequence (P05556 whole entry, one chain of several): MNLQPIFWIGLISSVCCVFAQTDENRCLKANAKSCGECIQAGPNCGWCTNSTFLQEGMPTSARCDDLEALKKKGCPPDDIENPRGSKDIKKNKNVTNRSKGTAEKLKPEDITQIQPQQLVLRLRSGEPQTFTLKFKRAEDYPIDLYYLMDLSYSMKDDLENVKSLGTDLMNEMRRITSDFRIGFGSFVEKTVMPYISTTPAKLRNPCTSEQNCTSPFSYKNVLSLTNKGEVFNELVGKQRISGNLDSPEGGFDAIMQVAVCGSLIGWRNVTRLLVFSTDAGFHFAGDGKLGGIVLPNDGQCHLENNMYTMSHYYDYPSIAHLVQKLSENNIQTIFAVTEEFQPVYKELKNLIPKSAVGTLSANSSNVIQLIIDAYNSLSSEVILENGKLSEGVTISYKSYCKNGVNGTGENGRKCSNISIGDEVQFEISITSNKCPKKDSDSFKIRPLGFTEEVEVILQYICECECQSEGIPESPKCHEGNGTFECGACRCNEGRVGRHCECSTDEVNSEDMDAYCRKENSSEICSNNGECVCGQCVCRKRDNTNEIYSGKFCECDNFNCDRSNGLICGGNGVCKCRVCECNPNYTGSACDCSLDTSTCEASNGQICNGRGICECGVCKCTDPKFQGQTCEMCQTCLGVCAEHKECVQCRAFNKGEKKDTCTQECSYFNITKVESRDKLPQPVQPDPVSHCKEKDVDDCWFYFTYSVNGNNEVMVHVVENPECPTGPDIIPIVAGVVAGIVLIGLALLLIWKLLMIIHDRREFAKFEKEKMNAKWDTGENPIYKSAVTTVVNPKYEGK

In the case of `O=C(O)C1C2C=CC(C2)[C@@H]1NC(=O)[C@@H]1CCCN1S(=O)(=O)c1cc(Cl)cc(Cl)c1` (stereo partly drawn) [listing 1 of 2 here], the IC50 at Integrin alpha-4/beta-1 [1] amounted to 657 nM.
Take `O=C(CN(C1CCCCC1)S(=O)(=O)c1cc(Cl)cc(Cl)c1)NC1CCCCC1C(=O)O` (stereo not drawn): the outcome on Integrin alpha-4/beta-1 [2] was inactive.
In turn, `O=C(O)[C@@H]1C2CCC(C2)[C@@H]1NC(=O)[C@@H]1CCCN1S(=O)(=O)c1cc(Cl)cc(Cl)c1` (stereo partly drawn) displayed an IC50 at Integrin alpha-4/beta-1 [1] of 1600 nM.
On the same count and under the same terms, to `O=C(O)[C@H]1CCCC[C@H]1NC(=O)[C@@H]1CCCN1S(=O)(=O)c1cc(Cl)cc(Cl)c1` belongs 9460 nM.
With `O=C(O)Cc1ccccc1NC(=O)[C@@H]1CCCN1S(=O)(=O)c1cc(Cl)cc(Cl)c1`, the Activity on Integrin alpha-4/beta-1 [2] turned out to be 11%.
With `O=C(O)C1C2CCC(C2)[C@@H]1NC(=O)[C@@H]1CCCN1S(=O)(=O)c1cc(Cl)cc(Cl)c1` (stereo partly drawn) [listing 1 of 2 here], the IC50 at Integrin alpha-4/beta-1 [1] turned out to be 322 nM.
Consider `O=C(O)[C@H]1C2CCC(C2)[C@@H]1NC(=O)[C@@H]1CCCN1S(=O)(=O)c1cc(Cl)cc(Cl)c1` (stereo partly drawn), for which the half-life in data set [3] is 1.7 h; in data set [4], 1.9 h. Besides, in data set [5], the clearance was 3.3 mL/min/kg. The IC50 at Integrin alpha-4/beta-7 worked out at 13000 nM; at Integrin alpha-4/beta-1 [1], 54 nM. In data set [6], this compound had a bioavailability of 49%.
For the compound `O=C(O)[C@H]1C2CCC(O2)[C@@H]1NC(=O)[C@@H]1CCCN1S(=O)(=O)c1cc(Cl)cc(Cl)c1` (stereo partly drawn), the IC50 at Integrin alpha-4/beta-1 [1] was 25600 nM. This counts as double-digit micromolar.
The same measure, in the same setting: to `O=C(O)[C@H]1C2CCC(CC2)[C@@H]1NC(=O)[C@@H]1CCCN1S(=O)(=O)c1cc(Cl)cc(Cl)c1` belongs 2740 nM.
In the case of `O=C(O)Cc1cccc(NC(=O)[C@@H]2CCCN2S(=O)(=O)c2cc(Cl)cc(Cl)c2)c1`, the Activity on Integrin alpha-4/beta-1 [2] came to 43%.
Take `O=C(O)C1C2CCC(C2)[C@@H]1NC(=O)[C@@H]1CCCN1S(=O)(=O)c1cc(Cl)cc(Cl)c1` (stereo partly drawn) [listing 2 of 2 here]: the IC50 at Integrin alpha-4/beta-1 [1] was 95 nM.
The same measure, in the same setting: to `O=C(O)C1C2CCC(C2)[C@H]1NC(=O)[C@@H]1CCCN1S(=O)(=O)c1cc(Cl)cc(Cl)c1` (stereo partly drawn) [listing 1 of 2 here] belongs 1490 nM.
As to `O=C(O)c1ccccc1NC(=O)[C@@H]1CCCN1S(=O)(=O)c1cc(Cl)cc(Cl)c1`, at Integrin alpha-4/beta-1 [2], the Activity came to 0%.
On to `O=C(O)C1C2C=CC(C2)[C@@H]1NC(=O)[C@@H]1CCCN1S(=O)(=O)c1cc(Cl)cc(Cl)c1` (stereo partly drawn) [listing 2 of 2 here], for which the IC50 on Integrin alpha-4/beta-1 [1] was 2160 nM.
Same read-out and setting: to `O=C(O)[C@H]1CCCC[C@@H]1NC(=O)[C@@H]1CCCN1S(=O)(=O)c1cc(Cl)cc(Cl)c1` belongs 525 nM; to `CC(C)[C@@H](C(=O)NC1CCCCC1C(=O)O)N(C)S(=O)(=O)c1cc(Cl)cc(Cl)c1` (stereo partly drawn), 462 nM; to `O=C(O)C1C2CCC(C2)[C@H]1NC(=O)[C@@H]1CCCN1S(=O)(=O)c1cc(Cl)cc(Cl)c1` (stereo partly drawn) [listing 2 of 2 here], 299 nM.
Compound `O=C(O)c1cccc(NC(=O)[C@@H]2CCCN2S(=O)(=O)c2cc(Cl)cc(Cl)c2)c1` returned an Activity on Integrin alpha-4/beta-1 [2] of 2%.
